ChEMBL document CHEMBL1129521, “Molecular modeling of azole antifungal agents active against Candida albicans. 1. A comparative molecular field analysis study” (1996)

System: Candida albicans
Assay: In vitro antimycotic activity of compound against Candida albicans was determined as -log MIC90 compound to that of -log MIC90 bifonazole
Assay type: functional

| SMILES | Ratio |
| --- | --- |
| COc1ccc(C(Cc2ccc(N)cc2)n2ccnc2)cc1 (stereo unspecified) | 0.3 |
| Fc1ccc(-n2ccc(C(c3ccc(Cl)cc3)n3ccnc3)c2)cc1 (stereo unspecified) | 0.3 |
| COc1ccc(C(Cc2ccc(Cl)cc2Cl)n2ccnc2)cc1 (stereo unspecified) | 0.6 |
| COc1ccc(C(Cc2ccc(Cl)cc2)n2cnnc2)cc1 (stereo unspecified) | 1.8 |
| COc1ccc(C(Cc2ccc([N+](=O)[O-])cc2)n2ccnc2)cc1 (stereo unspecified) | 1.5 |
| Cc1ccc(C(c2ccn(-c3ccccc3)c2)n2ccnc2)cc1 (stereo unspecified) | 0 |
| COc1ccc(C(Cc2ccccc2F)n2ccnc2)cc1 (stereo unspecified) | 1.8 |
| O=[N+]([O-])c1ccc(C(c2ccc(Cl)cc2)n2ccnc2)cc1 (stereo unspecified) | 0 |
| c1ccc(C(c2ccn(-c3ccccc3)c2)n2ccnc2)cc1 (stereo unspecified) | 0.6 |
| COc1ccc(-c2cn(Cc3ccc(Cl)cc3Cl)cc2C(c2ccccc2)n2ccnc2)cc1 (stereo unspecified) | 1.8 |
| CCC(c1ccc(Cl)cc1)C(c1ccc(OC)cc1)n1cncn1 (stereo unspecified) | 1.5 |
| COc1ccc(CC(c2ccc(OC)cc2)n2ccnc2)cc1 (stereo unspecified) | 0.9 |
| COc1ccc(C(Cc2ccc(Cl)cc2)n2ccnc2)cc1 (stereo unspecified) | 0.6 |
| COc1ccc(C(Cc2cccc(F)c2)n2ccnc2)cc1 (stereo unspecified) | 1.8 |
| Cn1cc(-c2ccccc2)c(C(c2ccc3ccccc3c2)n2ccnc2)c1 (stereo unspecified) | 2.4 |
| c1ccc(-c2c[nH]cc2C(c2cccc3ccccc23)n2ccnc2)cc1 (stereo unspecified) | 0.9 |
| Clc1ccc(-c2cn(Cc3ccc(Cl)cc3Cl)cc2C(c2ccccc2)n2ccnc2)cc1 (stereo unspecified) | 1.8 |
| CCC(c1ccc(Cl)cc1)C(c1ccc(OC)cc1)n1cnnc1 (stereo unspecified) | 1.8 |
| COc1ccc(C(Cc2ccc(F)cc2)n2ccnc2)cc1 (stereo unspecified) | 1.2 |

| SMILES | Ratio |
| --- | --- |
| Cc1ccc(C(c2ccc(NC(=O)c3ccc(Cl)cc3Cl)cc2)n2ccnc2)cc1 (stereo unspecified) | 0 |
| COc1ccc(C(Cc2cccc(Cl)c2)n2ccnc2)cc1 (stereo unspecified) | 1.5 |
| Cc1ccc(-c2cn(C)cc2C(c2ccccc2)n2ccnc2)cc1 (stereo unspecified) | 0.6 |
| COc1ccc(C(C(Cc2ccc(Cl)cc2Cl)c2ccc(Cl)cc2)n2cncn2)cc1 (stereo unspecified) | 1.8 |
| Fc1ccc(-c2c[nH]cc2C(c2ccccc2)n2ccnc2)cc1 (stereo unspecified) | 0 |
| COc1ccc(C(Cc2cccc(-n3cccc3)c2)n2ccnc2)cc1 (stereo unspecified) | 1.8 |
| Cn1cc(-c2ccc(F)cc2)c(C(c2ccccc2)n2ccnc2)c1 (stereo unspecified) | 0.6 |
| Cc1ccc(C(c2ccn(-c3ccc(F)cc3)c2)n2ccnc2)cc1 (stereo unspecified) | 0.3 |
| Cc1ccc(C(c2ccc(-n3cccc3)cc2)n2ccnc2)cc1 (stereo unspecified) | 0.9 |
| COc1ccc(C(Cc2ccc(Cl)cc2)n2cncn2)cc1 (stereo unspecified) | 1.5 |
| COc1ccc(C(Cc2ccccc2Cl)n2ccnc2)cc1 (stereo unspecified) | 1.8 |
| Cn1cc(-c2ccccc2)c(C(c2cccc3ccccc23)n2ccnc2)c1 (stereo unspecified) | 1.5 |
| CCC(c1ccc([N+](=O)[O-])cc1)C(c1ccc(OC)cc1)n1ccnc1 (stereo unspecified) | 0.9 |
| Cn1cc(-c2ccccc2)c(C(c2ccccc2)n2ccnc2)c1 (stereo unspecified) | 0.6 |
| COc1ccc(C(Cc2ccccc2[N+](=O)[O-])n2ccnc2)cc1 (stereo unspecified) | 2.1 |
| COc1ccc(C(Cc2ccccc2-n2cccc2)n2ccnc2)cc1 (stereo unspecified) | 0.9 |
| O=[N+]([O-])c1ccc(C(c2ccccc2)n2ccnc2)cc1 (stereo unspecified) | 0.3 |
| COc1ccc(C(C(Cc2ccc(Cl)cc2Cl)c2ccc(Cl)cc2)n2ccnc2)cc1 (stereo unspecified) | 1.2 |
| COc1ccc(C(Cc2ccc(Cl)cc2Cl)C(c2ccc(OC)cc2)n2ccnc2)cc1 (stereo unspecified) | 1.5 |

| SMILES | Ratio |
| --- | --- |
| Fc1ccc(C(c2ccn(-c3ccc(F)cc3)c2)n2ccnc2)cc1 (stereo unspecified) | 0 |
| Cn1cc(-c2ccc(Cl)cc2)c(C(c2ccccc2)n2ccnc2)c1 (stereo unspecified) | 0 |
| Clc1ccc(Cn2cc(-c3ccccc3)c(C(c3ccccc3)n3ccnc3)c2)c(Cl)c1 (stereo unspecified) | 1.5 |
| Cc1ccc(C(c2ccc([N+](=O)[O-])cc2)n2ccnc2)cc1 (stereo unspecified) | 0.3 |
| Fc1ccc(-n2ccc(C(c3ccccc3)n3ccnc3)c2)cc1 (stereo unspecified) | 0.6 |
| c1ccc(-c2c[nH]cc2C(c2ccc3ccccc3c2)n2ccnc2)cc1 (stereo unspecified) | 0.9 |
| Clc1ccc(-n2ccc(C(c3ccccc3)n3ccnc3)c2)cc1 (stereo unspecified) | 0.3 |
| Cc1ccc(C(c2ccn(-c3ccc(Cl)cc3)c2)n2ccnc2)cc1 (stereo unspecified) | 0 |
| COc1ccc(CC(c2ccc(OC)cc2)n2cnnc2)cc1 (stereo unspecified) | 1.8 |
| c1ccc(C(c2ccc(-n3cccc3)cc2)n2ccnc2)cc1 (stereo unspecified) | 0.6 |
| Clc1ccc(C(c2ccc(-n3cccc3)cc2)n2ccnc2)cc1 (stereo unspecified) | 0.3 |
| Cc1ccc(-c2cn(Cc3ccc(Cl)cc3Cl)cc2C(c2ccccc2)n2ccnc2)cc1 (stereo unspecified) | 1.8 |
| Nc1ccc(C(c2ccccc2)n2ccnc2)cc1 (stereo unspecified) | 0.3 |
| Fc1ccc(C(c2ccn(-c3ccc(Cl)cc3)c2)n2ccnc2)cc1 (stereo unspecified) | 0.3 |
| Fc1ccc(C(c2ccn(-c3ccccc3)c2)n2ccnc2)cc1 (stereo unspecified) | 0.3 |
| Clc1ccc(C(c2ccn(-c3ccc(Cl)cc3)c2)n2ccnc2)cc1 (stereo unspecified) | 0.6 |
| Clc1ccc(-c2c[nH]cc2C(c2ccccc2)n2ccnc2)cc1 (stereo unspecified) | 0.3 |
| c1ccc(-c2ccc(C(c3ccccc3)n3ccnc3)cc2)cc1 (stereo unspecified) [BIFONAZOLE] | 0 |
